In assay [1] the target is T1, NtrC^D86N,S160F (Salmonella typhimurium, UniProt P41789, C30V/C364A/D86N/S160F).
T1 construct: made in house
Format: biochemical. As to conditions: for Effect of single component on ATPase activity of NtrC^D86N,S160F: trace amounts of BeCl2 alone, high concentrations of NaF in absence of BeCl2.

Assay [2] concerns the target T2, NtrC^WT (Salmonella typhimurium, UniProt P41789, C30V/C364A).
T2 construct: made in house
Format: biochemical. As to conditions: for Stimulation of the ATPase activity of NtrC^WT: BeCl2 200 μM, AlCl3 200 μM, NaF 5 mM, VO4^3− 1 mM, compared with carbamoyl phosphate 10 mM. As to the method:
NtrC proteins. […] All full-length NtrC proteins (dimer concentration) were maltose binding protein fusions to NtrC lacking its two natural cysteines (MBP-NtrC^C30V,C364A) or its derivatives.
Assays. […] Mol. Biol. 249, 700-713). Prior to addition of ATP, other components were incubated for 30 min at 25° C. together with the indicated small molecule or combination of small molecules (carbamoyl phosphate, 10 mM; BeCl2, 200 μM; AlCl3, 200 μM; NaF, 5 mM; VO4^3−, 1 mM). The response of the ATPase activity of NtrC to the concentration of NaF or BeCl2 was assessed essentially as above, except the reaction time was 10 min.

Assay [3] concerns the target T3, phosphoserine phosphatase (PSP) (Methanocaldococcus jannaschii, UniProt Q58989).
T3 construct: made in house
Description: Inhibition of hydrolytic activity of PSP. Format: biochemical, Methanococcus jannaschii. As to conditions: for Effect of single component on PSP activity: NaF alone or BeCl2 alone; for Inhibition of hydrolytic activity of PSP: analog generated in situ (NaF plus BeCl2 or AlCl3).

For assay [4], the system named is control region for the fdnG operon. Description: DNase I footprinting of NarL DNA-binding. The arrangement: species or system E. coli.
In assay [5] the target is T2, NtrC^WT. Description: Formation of open complexes, single-cycle transcription assay. Format: biochemical. As to conditions: ≦100 μM BeFx vs 10 mM carbamoyl phosphate. As to the method:
Formation of open complexes was assessed in a single-cycle transcription assay on a supercoiled plasmid template pJES534 (1 nM) (Porter et al. (1993) Genes Dev. 7, 2258-2273; Flashner et al. (1995) J. Mol. Biol. 249, 700-713). NtrC was incubated with 100 μM BeCl2 plus 10 mM NaF or 10 mM carbamoyl phosphate, respectively, at 37° C. for 10 min prior to initiation of the reaction with ATP.
(§1) Transcriptional activation of NtrC was assessed as described in Flashner et al. (1995) J. Mol. Biol. 249, 700-713. DNA-binding of OmpR was assessed as described in Huang and Igo (1996) J. Mol. Biol. 262, 615-628. DNA-binding of NarL was assessed as described in Li et al. (1994) J. Mol. Biol. 241, 150-165 and Darwin et al. (1997) Mol. Microbiol 25, 583-595.

The target in assay [6] is T4, NtrC^D86C,Fe (Salmonella typhimurium, UniProt P41789, C30V/C364A/D86C).
T4 construct: made in house
Description: Fe-mediated cleavage of NtrC^D86C,Fe. As to conditions: BeCl2 200 μM, NaF 10 mM; divalent cation required. The class given is biochemical. As to the method:
Fe-mediated cleavage of NtrC was assessed as follows: NtrC (5 to 10 μM) was incubated for 30 min at 25° C. with the indicated small molecule or combination of small molecules (carbamoyl phosphate, 10 mM; BeCl2, 200 μM; NaF, 10 mM) in cleavage buffer (10 mM MOPS, pH 8.0, 50 mM KCl, 8 mM MgCl2, 5% glycerol, 1 mM EDTA). Then cleavage was initiated by adding H2O2 and sodium ascorbate to final concentrations of 50 mM and samples were subjected to analysis by SDS-PAGE as described (Greiner etal. (1997) Bioconjugate Chem. 8, 44-48).
We have two direct lines of evidence that BeFx mimics effects of phosphorylation of NtrC structurally as well as functionally. […] Rearrangement at the dimer interface of P-NtrC is postulated to drive the formation of active oligomers. […] By contrast, the BeFx-dependent cleavage did require a divalent cation, and either Mg^2+ or Mn^2+ could serve (FIG. 3B). Thus, like phosphorylation (Parkinson and Kofoid (1992) Annu. Rev. Genet. 26, 71-112; Stock et al. (1995) in Two-component signal transduction, eds. Hoch and Silhavy (ASM, Washington, D.C.), pp. 25-51; Lukat et al. (1992) Proc. Natl. Acad. Sci. USA 89, 718-722; Feng et al. (1992) J. Bacteriol. 174, 6061-6070), the interaction between BeFx and D54 of NtrC requires a divalent cation. […]

Assay [7] concerns mutant forms of NtrC in which D54 has been replaced by A or N. Description: ATPase activity of NtrC D54 mutants. The note with it: data not shown. The class given is biochemical, Salmonella typhimurium.
Assay [8] relates to ompF promoter-regulatory region. Description: DNase I footprinting of OmpR binding. Further details: species or system E. coli. The note with it: compared with P-OmpR (EnvZ or acetyl phosphate); NaF 10 mM, BeCl2 100 μM. How it is done: Binding of BeFx.OmpR to the ompF promoter-regulatory region was assessed by DNase I footprinting as described in Huang and Igo (1996) J. Mol. Biol. 262, 615-628 and was compared to that of P-OmpR. The concentrations of OmpR were: 6.4 μM (lanes 1, 6, 11 and 16); 1.6 μM (lanes 2, 7, 12 and 17); 0.4 μM (lanes 3, 8, 13 and 18); 0.1 μM (lanes, 4, 9, 14 and 19); and 0 μM (lanes 5, 10, 15 and 20). For samples in lanes 6-10, OmpR was phosphorylated by MBP-EnvZ (0.3 μM) as described (Huang and Igo (1996) J. Mol. Biol. 262, 615-628). For samples in lanes 11-20, NaF (10 mM) was present and for those in lanes 16-20, BeCl2 (100 μM) was also present. Non-specific DNA-binding observed in the presence of BeCl2 and NaF in lanes 16 and 17 was not observed when OmpR was phosphorylated by EnvZ (lanes 6 and 7) unless much higher concentrations of OmpR were used (see FIG. 4).
as §1

For assay [9], the target named is FliM peptide (residues 1-16). Description: FliM peptide binding of CheY (tryptophan fluorescence quenching). The arrangement: species or system E. coli. The note with it: CheY 10 μM; ± 2 mM BeCl2, 20 mM NaF, 20 mM MgCl2; read-out: Dissociation constant for binding to the FliM peptide. As to the method:
FliM peptide binding of CheY was assessed as described in McEvoy et al. (1999) J. Mol. Biol. 289, 1423-1433. Fluorescence intensity of CheY (10 μM) at 340 nm was measured as a function of added FliM peptide in the absence or presence of 2 mM BeCl2, 20 mM NaF and 20 mM MgCl2.
There is no direct in vitro assay for the activity of P-CheY in reversing the direction of flagellar rotation. […] The strength of this binding, which was assessed by quenching of the intrinsic tryptophan fluorescence of CheY, was recently reported to be phosphorylation-dependent (McEvoy et al. (1999) J. Mol. Biol. 289, 1423-1433). […] By this criterion, BeFx.CheY is as active as P-CheY. Like BeFx.CheY, a phosphonate derivative of CheY^D57C appears to be a biochemical analogue of P-CheY, but it is difficult to prepare (Halkides et al. (1998) Biochemistry 37, 13674-13680). Such analogues are extremely useful because the acyl phosphate linkage of P-CheY is exceptionally labile (half life of seconds) (Parkinson and Kofoid (1992) Annu. Rev. Genet. 26, 71-112; Stock et al. (1995) in Two-component signal transduction, eds. Hoch and Silhavy (ASM, Washington, D.C.), pp. 25-51).

Turning to `[Be+2].[Cl-].[Cl-]` [BeCl2], the “Effect of single component on ATPase activity of NtrC^D86N,S160F” value in assay [1] is recorded as “inhibited”. Further, the “BeCl2 concentration at which inhibition of ATPase activity occurred” value in [2] (5 mM NaF) is at least 200 µM. In assay [2] (5 mM NaF, NtrC^WT 0.4 μM dimer), the “BeCl2 concentration at which ATPase activity was detected (lowest tested)” value was 5 µM and the “BeCl2 concentration giving highest ATPase activity” value was 100 µM. Also, the “Effect of single component on PSP activity” value in assay [3] is listed as “Neither alone had such a profound effect”.

As for `[F-].[Na+]` [NaF], in [1], the “Effect of single component on ATPase activity of NtrC^D86N,S160F” value was “inhibited”. Also, in [2] (50 μM BeCl2), the “NaF concentration at which inhibition of ATPase activity occurred” value was at least 50 mM and the “NaF concentration below which no ATPase activity was observed” value worked out at 1 mM. Also, the “Effect of single component on PSP activity” value in assay [3] was “Neither alone had such a profound effect”.

For `[O]=[V]([O-])([O-])[O-]` [VO4^3−, orthovanadate], the “Stimulation of the ATPase activity of NtrC^WT” value (“Stimulation … of NtrC^WT” for short) in assay [2] was “neither AlFx nor VO4^3− could substitute”. The “Inhibition of hydrolytic activity of PSP” value in assay [3] is listed as “observed to inhibit PSP activity”.

Turning to ADP.BeFx, the “Inhibition of the ATPase activity of NtrC^D86N,S160F” value in assay [1] (ADP complexes of phosphate analogs) was “neither ADP.BeFx nor ADP.AlFx nor ADP.VO4^3− appeared to inhibit”.

With “BeFx.NarL: beryllofluoride complex of E. coli response regulator NarL”, the “Activity relative to P-NarL” value in assay [4] (200 μM BeCl2, 10 mM NaF and 5 mM MgCl2) is on record as “less active”. Further, the “Binding to the control region for the fdnG operon” value in assay [4] (compared with P-NarL, data not shown) is “bound similarly”.

As to aluminofluoride [AlFx], the “Stimulation of the ATPase activity of unphosphorylated NtrC^D86N,S160F” value in assay [1] is on record as “but not Alfx”. Moreover, the “Stimulation … of NtrC^WT” value in assay [2] is given as “neither AlFx nor VO4^3− could substitute”. Moreover, the “Inhibition of hydrolytic activity of PSP” value in [3] is recorded as “can substitute for BeF3^− to inhibit PSP activity”.

For beryllofluoride [BeFx], the “Activation of transcription by σ54-holoenzyme (open complexes)” value in [5] is “at least as great as that of the phosphorylated protein”. For the same molecule, the “Stimulation of the ATPase activity of unphosphorylated NtrC^D86N,S160F” value in assay [1] is “substantially stimulated”. In [2], the “Stimulation … of NtrC^WT” value is recorded as “as effective as carbamoyl phosphate”. Moreover, in assay [6], the “Phosphorylation-dependent Fe-mediated cleavage” value is given as “yields an otherwise phosphorylation-dependent cleavage”. The “Stimulation of ATPase activity of D54A / D54N NtrC” value in assay [7] is “failure of BeFx to stimulate”. The “Inhibition of PSP activity at different temperatures” value in assay [3] (70° C. or room temperature, data not shown) is reported as “similarly inhibited”. Besides, the “Inhibition of hydrolytic activity of PSP” value in [3] is recorded as “significantly inhibited”.

B1: BeFx.OmpR: beryllofluoride complex of E. coli response regulator OmpR (protein, UniProt P0AA16 1-239, looked up)
DNA-binding dual …: MQENYKILVVDDDMRLRALLERYLTEQGFQVRSVANAEQMDRLLTRESFHLMVLDLMLPGEDGLSICRRLRSQSNPMPIIMVTAKGEEVDRIVGLEIGADDYIPKPFNPRELLARIRAVLRRQANELPGAPSQEEAVIAFGKFKLNLGTREMFREDEPMPLTSGEFAVLKALVSHPREPLSRDKLMNLARGREYSAMERSIDVQISRLRRMVEEDPAHPRYIQTVWGLGYVFVPDGSKA
modifications: beryllofluoride complex
Turning to B1, the “Binding to regulatory region upstream of the ompF promoter” value in assay [8] was “better than P-OmpR”.

B2: BeFx.CheY: beryllofluoride acyl phosphate analogue of E. coli response regulator CheY (protein, UniProt P0AE67 2-129, looked up)
Chemotaxis protein CheY: ADKELKFLVVDDFSTMRRIVRNLLKELGFNNVEEAEDGVDALNKLQAGGYGFVISDWNMPNMDGLELLKTIRADGAMSALPVLMVTAEAKKENIIAAAQAGASGYVVKPFTAATLEEKLNKIFEKLGM
modifications: beryllofluoride complex
Regarding B2, the Kd in assay [9] was found to be 26 µM.

B3: CheY: E. coli CheY, central regulator of the chemotactic response, unmodified inactive form (protein, UniProt P0AE67 2-129, looked up)
Chemotaxis protein CheY: B2 Chemotaxis protein CheY
Consider B3, for which, in assay [9], the Kd stood at 500 µM.

The values above are taken from patent publication US6495356B1, “Beryllofluoride analogues of acyl phosphate polypeptides” (priority 1999, dated 2002).
